The text below walks through data of patent US20240116985A1, “STAPLED PEPTIDES AND METHODS THEREOF” (priority 2020, published 2024).

The experiment concerns the target T1, full-length beta-Catenin (Uniprot ID P35222) (Homo sapiens, UniProt P35222).
T1 construct: 10 nM full-length beta-Catenin (Uniprot ID P35222)
T1 sequence (P35222 1-781): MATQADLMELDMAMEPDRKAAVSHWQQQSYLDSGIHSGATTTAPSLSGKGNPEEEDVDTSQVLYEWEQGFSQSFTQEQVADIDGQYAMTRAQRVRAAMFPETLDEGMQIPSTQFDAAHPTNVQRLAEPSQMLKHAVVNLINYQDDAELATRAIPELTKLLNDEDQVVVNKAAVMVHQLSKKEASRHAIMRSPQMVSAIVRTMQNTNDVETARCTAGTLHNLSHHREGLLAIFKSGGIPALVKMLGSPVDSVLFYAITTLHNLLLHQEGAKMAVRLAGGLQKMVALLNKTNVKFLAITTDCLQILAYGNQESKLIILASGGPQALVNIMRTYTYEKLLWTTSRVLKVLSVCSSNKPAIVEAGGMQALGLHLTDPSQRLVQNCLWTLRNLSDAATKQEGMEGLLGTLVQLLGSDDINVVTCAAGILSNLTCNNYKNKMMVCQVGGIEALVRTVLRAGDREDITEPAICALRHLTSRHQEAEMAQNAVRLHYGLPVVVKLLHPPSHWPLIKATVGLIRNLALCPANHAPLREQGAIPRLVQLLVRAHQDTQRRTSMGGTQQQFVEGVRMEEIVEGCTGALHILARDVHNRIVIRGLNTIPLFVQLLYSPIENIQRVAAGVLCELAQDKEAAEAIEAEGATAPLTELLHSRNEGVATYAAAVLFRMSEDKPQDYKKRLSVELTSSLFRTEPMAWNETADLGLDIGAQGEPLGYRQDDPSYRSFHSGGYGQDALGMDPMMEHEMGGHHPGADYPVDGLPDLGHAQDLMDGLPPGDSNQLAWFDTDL
The experiment in a line: Fluorescence polarization IC50 (beta-catenin / 5FAM-TCF4 10-53 competition). It is filed as binding. The note with it: fluorescence polarization; read-out: beta-Catenin FP IC50.

For orientation: IC50 means the concentration that gives 50% inhibition. On to `CC(=O)N1CCC[C@]12CC=CCCCC1(CCCC=CCCCOC(=O)N3CC[C@@](C(=O)N[C@@H](Cc4ccsc4)C(=O)N[C@@H](Cc4csc5ccccc45)C(=O)N[C@@H](CCC(N)=O)C(N)=O)(C3)NC(=O)[C@H](CC(N)=O)NC(=O)[C@H](Cc3ccccc3)NC(=O)[C@H](C)NC(=O)[C@H](C)NC(=O)[C@H]([C@@H](C)O)NC(=O)[C@H](CC(N)=O)NC1=O)NC(=O)[C@H](CC(C)(C)C)NC(=O)[C@H](Cc1cccc(C(=O)O)c1)NC2=O` (stereo partly drawn) [I-2135, Ac-PL3-3COOHF-Npg-B5-Asn-Thr-Ala-Ala-Phe-Asn-PyrS2-3Thi-BztA-Gln-NH2], for which the 50% inhibitory concentration (IC50) turned out to be 3410 nM.
Next, `CC(=O)N1CCC[C@]12CC=CCCCC1(CCCC=CCCCOC(=O)N3CC[C@@](C(=O)N[C@@H](Cc4ccsc4)C(=O)N[C@@H](Cc4csc5ccccc45)C(=O)N[C@@H](Cc4c[nH]c5ccccc45)C(N)=O)(C3)NC(=O)[C@H](CC(N)=O)NC(=O)[C@H](Cc3ccccc3)NC(=O)[C@H](C)NC(=O)[C@H](C)NC(=O)[C@H]([C@@H](C)O)NC(=O)[C@H](CC(N)=O)NC1=O)NC(=O)[C@H](CC(C)(C)C)NC(=O)[C@H](CC(=O)O)NC2=O` (stereo partly drawn) [I-2138, Ac-PL3-Asp-Npg-B5-Asn-Thr-Ala-Ala-Phe-Asn-PyrS2-3Thi-BztA-Trp-NH2]: 1010 nM; `CC(=O)N1CCC[C@]12CC=CCCCC1(CCCC=CCCCOC(=O)N3CC[C@@](C(=O)N[C@@H](Cc4ccsc4)C(=O)N[C@@H](Cc4csc5ccccc45)C(=O)N[C@@H](Cc4c[nH]c5ccccc45)C(N)=O)(C3)NC(=O)[C@H](CC(N)=O)NC(=O)[C@H](Cc3ccccc3)NC(=O)[C@H](C)NC(=O)[C@H](C)NC(=O)[C@H]([C@@H](C)O)NC(=O)[C@H](CC(N)=O)NC1=O)NC(=O)[C@H](CC(C)(C)C)NC(=O)[C@H](CC(=O)O)NC2=O` (stereo partly drawn) [I-2139, Ac-PL3-Asp-Npg-B5-Asn-Thr-Ala-Ala-Phe-Asn-PyrS2-3Thi-BztA-Trp-NH2]: 970 nM; `CC(=O)N1CCC[C@]12CC=CCCCC1(CCCC=CCCCOC(=O)N3CC[C@@](C(=O)N[C@@H](Cc4ccsc4)C(=O)N[C@@H](Cc4csc5ccccc45)C(=O)N[C@@H](Cc4c[nH]cn4)C(N)=O)(C3)NC(=O)[C@H](CC(N)=O)NC(=O)[C@H](Cc3ccccc3)NC(=O)[C@H](C)NC(=O)[C@H](C)NC(=O)[C@H]([C@@H](C)O)NC(=O)[C@H](CC(N)=O)NC1=O)NC(=O)[C@H](CC(C)(C)C)NC(=O)[C@H](CC(=O)O)NC2=O` (stereo partly drawn) [I-2140, Ac-PL3-Asp-Npg-B5-Asn-Thr-Ala-Ala-Phe-Asn-PyrS2-3Thi-BztA-His-NH2]: 233 nM.
Next, `CC(=O)N1CCC[C@]12CC=CCCCC1(CCCC=CCCCOC(=O)N3CC[C@@](C(=O)N[C@@H](Cc4ccsc4)C(=O)N[C@@H](Cc4csc5ccccc45)C(=O)N[C@@H](Cc4c[nH]cn4)C(N)=O)(C3)NC(=O)[C@H](CC(N)=O)NC(=O)[C@H](Cc3ccccc3)NC(=O)[C@H](C)NC(=O)[C@H](C)NC(=O)[C@H]([C@@H](C)O)NC(=O)[C@H](CC(N)=O)NC1=O)NC(=O)[C@H](CC(C)(C)C)NC(=O)[C@H](CC(=O)O)NC2=O` (stereo partly drawn) [I-2141, Ac-PL3-Asp-Npg-B5-Asn-Thr-Ala-Ala-Phe-Asn-PyrS2-3Thi-BztA-His-NH2]: 310 nM; `CC(=O)N1CCC[C@]12CC=CCCCC1(CCCC=CCCCOC(=O)N3CC[C@@](C(=O)N[C@@H](Cc4ccsc4)C(=O)N[C@@H](Cc4csc5ccccc45)C(=O)N[C@@H](C)C(N)=O)(C3)NC(=O)[C@H](CC(N)=O)NC(=O)[C@H](Cc3ccccc3)NC(=O)[C@H](C)NC(=O)[C@H](C)NC(=O)[C@H]([C@@H](C)O)NC(=O)[C@H](CC(N)=O)NC1=O)NC(=O)[C@H](CC(C)(C)C)NC(=O)[C@H](CC(=O)O)NC2=O` (stereo partly drawn) [I-2143, Ac-PL3-Asp-Npg-B5-Asn-Thr-Ala-Ala-Phe-Asn-PyrS2-3Thi-BztA-Ala-NH2]: 217 nM.
Next, `CC(=O)N1CCC[C@]12CC=CCCCC1(CCCC=CCCCOC(=O)N3CC[C@@](C(=O)N[C@@H](Cc4ccsc4)C(=O)N[C@@H](Cc4csc5ccccc45)C(=O)N[C@@H](Cc4ccccc4)C(N)=O)(C3)NC(=O)[C@H]([C@@H](C)O)NC(=O)[C@H](Cc3ccccc3)NC(=O)[C@H](C)NC(=O)[C@H](C)NC(=O)[C@H]([C@@H](C)O)NC(=O)[C@H](CC(N)=O)NC1=O)NC(=O)[C@H](CC(C)(C)C)NC(=O)[C@H](CC(=O)O)NC2=O` (stereo partly drawn) [I-2144, Ac-PL3-Asp-Npg-B5-Asn-Thr-Ala-Ala-Phe-Thr-PyrS2-3Thi-BztA-Phe-NH2]: 2020 nM; `CC(=O)N1CCC[C@]12CC=CCCCC1(CCCC=CCCCOC(=O)N3CC[C@@](C(=O)N[C@@H](Cc4ccsc4)C(=O)N[C@@H](Cc4csc5ccccc45)C(=O)N[C@@H](Cc4ccccc4)C(N)=O)(C3)NC(=O)[C@H]([C@@H](C)O)NC(=O)[C@H](Cc3ccccc3)NC(=O)[C@H](C)NC(=O)[C@H](C)NC(=O)[C@H]([C@@H](C)O)NC(=O)[C@H](CC(N)=O)NC1=O)NC(=O)[C@H](CC(C)(C)C)NC(=O)[C@H](CC(=O)O)NC2=O` (stereo partly drawn) [I-2145, Ac-PL3-Asp-Npg-B5-Asn-Thr-Ala-Ala-Phe-Thr-PyrS2-3Thi-BztA-Phe-NH2]: 2070 nM.
Turning to `CC(=O)N1CCC[C@]12CC=CCCCC1(CCCC=CCCCOC(=O)N3CC[C@@](C(=O)N[C@@H](Cc4ccsc4)C(=O)N[C@@H](Cc4csc5ccccc45)C(=O)N[C@@H](CCC(N)=O)C(N)=O)(C3)NC(=O)[C@H](Cc3c[nH]cn3)NC(=O)[C@H](Cc3ccccc3)NC(=O)[C@H](C)NC(=O)[C@H](C)NC(=O)[C@H]([C@@H](C)O)NC(=O)[C@H](CC(N)=O)NC1=O)NC(=O)[C@H](CC(C)(C)C)NC(=O)[C@H](CC(=O)O)NC2=O` (stereo partly drawn) [I-2146, Ac-PL3-Asp-Npg-B5-Asn-Thr-Ala-Ala-Phe-His-PyrS2-3Thi-BztA-Gln-NH2], the IC50 came out at 248 nM.
Next, `CC(=O)N1CCC[C@]12CC=CCCCC1(CCCC=CCCCOC(=O)N3CC[C@@](C(=O)N[C@@H](Cc4ccsc4)C(=O)N[C@@H](Cc4csc5ccccc45)C(=O)N[C@@H](CCC(N)=O)C(N)=O)(C3)NC(=O)[C@H](Cc3c[nH]cn3)NC(=O)[C@H](Cc3ccccc3)NC(=O)[C@H](C)NC(=O)[C@H](C)NC(=O)[C@H]([C@@H](C)O)NC(=O)[C@H](CC(N)=O)NC1=O)NC(=O)[C@H](CC(C)(C)C)NC(=O)[C@H](CC(=O)O)NC2=O` (stereo partly drawn) [I-2147, Ac-PL3-Asp-Npg-B5-Asn-Thr-Ala-Ala-Phe-His-PyrS2-3Thi-BztA-Gln-NH2]: 390 nM; `CC(=O)N1CCC[C@]12CC=CCCCC1(CCCC=CCCCOC(=O)N3CC[C@@](C(=O)N[C@@H](Cc4ccsc4)C(=O)N[C@@H](Cc4csc5ccccc45)C(=O)N[C@@H](CCC(N)=O)C(N)=O)(C3)NC(=O)[C@H](CC(N)=O)NC(=O)[C@H](Cc3ccccc3)NC(=O)[C@H](C)NC(=O)[C@H](C)NC(=O)[C@H]([C@@H](C)O)NC(=O)[C@H]([C@@H](C)O)NC1=O)NC(=O)[C@H](CC(C)(C)C)NC(=O)[C@H](CC(=O)O)NC2=O` (stereo partly drawn) [I-2149, Ac-PL3-Asp-Npg-B5-Thr-Thr-Ala-Ala-Phe-Asn-PyrS2-3Thi-BztA-Gln-NH2]: 7180 nM.
As to `CC(=O)N1CCC[C@]12CC=CCCCC1(CCCC=CCCCOC(=O)N3CC[C@@](C(=O)N[C@@H](Cc4cccc(Br)c4)C(=O)N[C@@H](Cc4ccsc4)C(=O)N[C@@H](CCC(N)=O)C(N)=O)(C3)NC(=O)[C@H](CC(C)C)NC(=O)[C@H](Cc3ccccc3)NC(=O)[C@H](C)NC(=O)[C@H](C)NC(=O)[C@H](Cc3cccc(C(=O)O)c3)NC(=O)[C@H](CC(=O)O)NC1=O)NC(=O)[C@H](CC(C)(C)C)NC(=O)[C@H](CC(=O)O)NC2=O` (stereo partly drawn) [I-2152, Ac-PL3-Asp-Npg-B5-Asp-3COOHF-Ala-Ala-Phe-Leu-PyrS2-3BrF-3Thi-Gln-NH2], the IC50 worked out at 3080 nM.
Next, `CC(=O)N1CCC[C@]12CC=CCCCC1(CCCC=CCCCOC(=O)N3CC[C@@](C(=O)N[C@@H](Cc4cccc(Br)c4)C(=O)N[C@@H](Cc4ccccc4)C(=O)N[C@@H](CCC(N)=O)C(N)=O)(C3)NC(=O)[C@H](CC(C)C)NC(=O)[C@H](Cc3ccccc3)NC(=O)[C@H](C)NC(=O)[C@H](C)NC(=O)[C@H](Cc3cccc(C(=O)O)c3)NC(=O)[C@H](CC(=O)O)NC1=O)NC(=O)[C@H](CC(C)(C)C)NC(=O)[C@H](CC(=O)O)NC2=O` (stereo partly drawn) [I-2153, Ac-PL3-Asp-Npg-B5-Asp-3COOHF-Ala-Ala-Phe-Leu-PyrS2-3BrF-Phe-Gln-NH2]: 1480 nM.
Turning to `CC(=O)N1CCC[C@]12CC=CCCCC1(CCCC=CCCCOC(=O)N3CC[C@@](C(=O)N[C@@H](Cc4cccc(Br)c4)C(=O)N[C@@H](CC4CCC4)C(=O)N[C@@H](CCC(N)=O)C(N)=O)(C3)NC(=O)[C@H](CC(C)C)NC(=O)[C@H](Cc3ccccc3)NC(=O)[C@H](C)NC(=O)[C@H](C)NC(=O)[C@H](Cc3cccc(C(=O)O)c3)NC(=O)[C@H](CC(=O)O)NC1=O)NC(=O)[C@H](CC(C)(C)C)NC(=O)[C@H](CC(=O)O)NC2=O` (stereo partly drawn) [I-2154, Ac-PL3-Asp-Npg-B5-Asp-3COOHF-Ala-Ala-Phe-Leu-PyrS2-3BrF-Cba-Gln-NH2], the IC50 is 9550 nM.
